According to patent US20170327494A1, “NON-INVASIVE VENTILATION WITH HIGH FREQUENCY OSCILLATIONS” (KONINKLIJKE PHILIPS N.V., priority 2014, published 2017):

N#C/C(=C1/SCC(c2cc(Cl)sc2Cl)S1)n1ccnc1 (stereo not shown) [I.h.25, (2E)-2-[4-(2,5-dichloro-3-thienyl)-1,3-dithiolan-2-ylidene]-2-imidazol-1-yl-acetonitrile]
melting point: 117 to 119 °C
